Results reported in US9896481B2, “Modified mini-hepcidin peptides and methods of using thereof” (priority 2011, dated 2018).
Non-standard residues stand in square brackets, D forms with d. *: point of attachment. Ida = 2,2'-azanediyldiacetic acid, O=C(O)CNCC(=O)*; Ida(NHPal) = Ida cap bearing a palmityl amide; Dip = N[C@H](C(=O)O)C(c1ccccc1)c1ccccc1; β3hP = O=C(O)C[C@@H]1CCCN1; Ahx = NCCCCCC(=O)O

Tests used:
Hamp1-/- mice [1] = test: Prevention study: 2 weeks daily PR65 in iron-depleted hepcidin knockout mice on iron-loading diet
Protocol: PR65 was administered subcutaneously in 100 μl of SL220 solubilizer. Short-term studies were carried out for up to 48 hours to establish the effectiveness of a single injection. Long-term studies (“prevention” and “treatment”) were carried out for 2 weeks using daily injections and iron and hematological parameters measured 24 hours after the last injection.
To test the ability of PR65 to prevent, inhibit, or reduce iron loading (“prevention” studies), male Hamp1^−/− mice were iron-depleted by placing them on a low-iron diet (4 ppm iron) for 2 months starting at the age of 5-6 weeks. […] A group of mice was analyzed immediately after iron depletion (baseline group), and the remaining animals were switched to an iron-loading diet (standard chow, about 300 ppm Fe) and received daily subcutaneous injection of solvent or PR65 (20, 50 or 100 nmoles) for 2 weeks. All mouse diets were obtained from Harlan-Teklad (Madison, Wis.).
Serum iron and non-heme iron concentrations were determined as previously described (Ramos E, et al. (2011) Hepatology 53(4):1333-1341), using acid treatment followed by a colorimetric assay for iron quantitation (Genzyme, Cambridge, Mass.). […] Complete blood counts were obtained with a HemaVet blood analyzer (Drew Scientific, Oxford, Conn.).
After iron depletion, a group of mice was analyzed to establish the baseline iron and hematological parameters and the rest of the mice were placed on an iron-loading diet (300 ppm Fe) for 2 weeks while simultaneously receiving daily subcutaneous injections of solven only (control) or PR65 (20, 50 or 100 nmoles) in solvent. […] Hemoglobin concentrations were monitored to detect potential iron-restrictive effects of hepcidin excess on erythropoiesis.

Hamp1-/- mice [2] = test: Treatment study: 2 weeks daily PR65 in iron-overloaded hepcidin knockout mice; format: in vivo, mouse; conditions: 50 nmoles daily s.c., 14 days
Protocol: To test the effect of PR65 on iron-loaded Hamp1^−/− mice (“treatment” studies), male mice were kept on the standard diet for their entire lifespan. Beginning at 12-14 weeks of age, 50 nmoles of PR65 or solvent was injected daily by the subcutaneous route for 2 weeks.
To assess the potential of mini-hepcidins as a standalone treatment for iron overload in subjects, 12 week old iron-overloaded hepcidin knockout mice were injected with 50 nmoles of PR65 daily for 14 days. […] In contrast to mice that were iron-depleted before PR65 administration, in mice with established iron overload serum iron levels were not decreased 24 hours after the last dose compared to solvent-treated mice (p=0.682) (FIG. 15B). […] The less than 24 hours duration of the hypoferremic effect of each 50 nmoles dose may have been due to the severe iron overload of the hepcidin knockout mice at this age. Accumulated hepatocyte iron could stimulate ferroportin synthesis and iron efflux from hepatocytes into plasma by relieving the inhibition of ferroportin translation by iron-regulatory proteins (IRPs) interacting with 5′ iron-regulatory element (5′ IRE) in the ferroportin mRNA, and possibly by other mechanisms.

mouse [3] = test: Activity at 20 nmoles/mouse: serum iron 4 hours after injection versus solvent (Tables 3 and 4); format: in vivo; set-up: key: Y: “Active” means that the injection of the compound resulted in statistically significant (p < 0.05) lowering of serum iron compared to solvent injection when measured 4 hours after administration; Y*: detectable and reproducible activity but at least 50% lower than other active compounds in Table 4; conditions: Table 4; intraperitoneal; serum iron 4 h after administration
mouse [4] = test: as above; format: in vivo; set-up: key: Y: “Active” means that at 4 hours after injection serum iron in peptide-injected mice decreased statistically significantly (p < 0.05) compared to solvent-injected mice; Y*: Exhibits detectable and reproducible activity at about 50% lower than the most active compounds in Table 3 and 4; conditions: Table 3; subcutaneous
mouse [5] = test: as above; format: in vivo; set-up: key: Y: “Active” means that at 4 hours after injection serum iron in peptide-injected mice decreased statistically significantly (p < 0.05) compared to solvent-injected mice; Y*: Exhibits detectable and reproducible activity at about 50% lower than the most active compounds in Table 3 and 4; conditions: Table 3, intraperitoneal

**Q.** How did the hemoglobin levels (Hamp1-/- mice [1]; 20 nmoles per day s.c., 2 weeks) turn out when `CCCCCCCCCCCCCCCC(=O)NCCCOCCOCCOCCCNC(=O)C[C@H](Cc1ccccc1)NC(=O)[C@H](CCCNC(=N)N)NC(=O)[C@H](CS)NC(=O)[C@H](CCCNC(=N)N)NC(=O)C[C@@H]1CCCN1C(=O)[C@@H](NC(=O)[C@H](Cc1c[nH]cn1)NC(=O)[C@@H](NC(=O)CNCC(=O)O)[C@@H](C)O)C(c1ccccc1)c1ccccc1` [PR65] was run?
**A.** Its hemoglobin levels is “did not change significantly”.

**Q.** What about the “reduction of hemoglobin concentration” value (Hamp1-/- mice [1]; 50 nmoles per day s.c., 2 weeks) of the same molecule?
**A.** The value was 3 g/dL.

**Q.** And the anemia (Hamp1-/- mice [1]; 100 nmoles daily, 2 weeks)?
**A.** Its anemia is “moderately anemic”.

**Q.** And the “reduction of hemoglobin concentration” value (Hamp1-/- mice [1]; 100 nmoles per day s.c., 2 weeks)?
**A.** Its value is 5 g/dL.

**Q.** What about the maximal tolerated dose (Hamp1-/- mice [1]; daily s.c. dosing) of the same molecule?
**A.** The maximal tolerated dose was 50 nmol.

**Q.** What about the decrease in hemoglobin (Hamp1-/- mice [2]) of the same molecule?
**A.** Its decrease in hemoglobin is 2 g/dL.

**Q.** How did the “Active @ 20 nmoles/mouse IP” value (mouse [3]) turn out when “PR82: SEQ ID NO: 101; Ida-T-H-Dpa-bhPro-R-C-R-W-Ahx-Ida(NHPal) (Ida-TH[Dip][β3hP]RCRW-{Ahx-Ida(NHPal)})” was run?
**A.** Its value is “Y”.

**Q.** Which “Active @ 20 nmoles/mouse by SQ” value (mouse [4]) does the source give for `CCCCCCCCCCCCCCCC(=O)NCCCOCCOCCOCCCNC(=O)COCCOCCOCCNC(=O)C[C@H](Cc1ccccc1)NC(=O)[C@H](CCCNC(=N)N)NC(=O)[C@H](CS)NC(=O)[C@H](CCCNC(=N)N)NC(=O)C[C@@H]1CCCN1C(=O)[C@@H](NC(=O)[C@H](Cc1c[nH]cn1)NC(=O)[C@@H](NC(=O)CNCC(=O)O)[C@@H](C)O)C(c1ccccc1)c1ccccc1` [PR61] here?
**A.** Its value is “Y (also”.

**Q.** What about the “Active @ 20 nmoles/mouse IP” value (mouse [5]) of the same molecule?
**A.** The value was “Y (also”.
